According to patent publication US11707462B2, “Checkpoint kinase 1 (CHK1) inhibitors and uses thereof” (Boundless Bio, Inc., priority 2021, dated 2023):
pIC50: −log10 of the molar value.

Legend:
[1] = molecular target: T1, Full-length human Chk1 protein (Homo sapiens, UniProt O14757); assay: Kinase HTRF biochemical assay (HTRF KinEASE), Chk1 enzyme activity; conditions: full-length human Chk1, ATP 1 mM, 60 minutes at room temperature
T1 construct: purchased Carna Biosciences, Inc. 02-117
T1 sequence (O14757 1-476): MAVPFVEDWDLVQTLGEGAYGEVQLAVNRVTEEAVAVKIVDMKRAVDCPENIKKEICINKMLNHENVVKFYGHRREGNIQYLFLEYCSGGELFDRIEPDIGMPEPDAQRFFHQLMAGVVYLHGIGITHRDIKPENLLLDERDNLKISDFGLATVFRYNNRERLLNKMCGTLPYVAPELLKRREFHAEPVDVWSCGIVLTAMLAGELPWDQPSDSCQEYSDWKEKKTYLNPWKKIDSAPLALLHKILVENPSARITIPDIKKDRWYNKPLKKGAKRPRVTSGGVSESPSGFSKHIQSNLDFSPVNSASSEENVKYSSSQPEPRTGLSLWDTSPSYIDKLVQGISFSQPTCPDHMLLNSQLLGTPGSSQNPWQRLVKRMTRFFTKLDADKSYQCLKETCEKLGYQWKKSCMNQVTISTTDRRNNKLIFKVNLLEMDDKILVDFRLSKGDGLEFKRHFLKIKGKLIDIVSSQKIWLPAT
Experimental: Example A: Kinase HTRF Biochemical Assay
Chk1 enzyme activity was measured using an HTRF KinEASE assay (Cisbio, catalog no. 62ST1PEC). Full-length human Chk1 protein (GenBank accession number NP_001265.1) was obtained from Carna Biosciences, Inc. (Kobe, Japan, catalog no. 02-117). The enzyme reaction was carried out in assay buffer containing (final concentrations): Chk1 enzyme (0.012 ng/μL), MgCl2 (5 mM) and DTT (1 mM). To determine compound dose response, DMSO stock solutions were serially diluted in a 10-point concentration series in duplicate. Compound solution (50 nL) was added to 384-well assay plates (Greiner, catalog no. 784075). To each well containing compound solution was added assay buffer solution (5 μL). Plates were centrifuged at 1000 rpm for 1 minute, then incubated at room temperature for 10 minutes. The reaction was started by addition of substrate buffer (5 μL/well) containing (final concentrations): STK substrate 1-biotin (120 nM) and ATP (1 mM). Assay plates were centrifuged at 1000 rpm for 1 minute, then incubated at room temperature for 60 minutes. The reaction was stopped by addition of detection buffer (Cisbio, 10 μL) containing (final concentrations): STK antibody-cryptate (0.25 nM) and streptavidin-XL665 (7.5 nM). Plates were centrifuged at 1000 rpm for 1 minute, then incubated at 25° C. for 2 hours. HTRF signal was read on an EnVision multimode plate reader […] in HTRF mode. Data were fit to dose-response curves using XLfit (IDBS, Surrey, UK) or Prism (GraphPad Software, La Jolla, Calif., US) to calculate IC50 values for each compound tested.

[2] = system: p-CHK1 (Ser345); assay: AlphaLISA SureFire Ultra p-CHK1 (Ser345) cellular assay in HT29 cells; format: cell-based; conditions: Homo sapiens, HT-29, 16 h at 37° C.
Experimental: Example B: AlphaLisa Cellular Assay
Compound activity in cells was measured using an AlphaLISA® SureFire® Ultra™ p-CHK1 (Ser345) assay (Perkin Elmer, catalog no. ALSU-PCHK1-A10K). HT29 cells were cultured in McCoy 5A medium with 10% FBS and 1% penicillin-streptomycin and seeded to 96-well plates (Corning, catalog no. 3599). Compounds were serially diluted in DMSO over a 10-point dose range with 3-fold dilution and to each well containing cells was added compound solution. Plates were centrifuged at 1000 rpm for 30 seconds. Plates were incubated at 37° C. for 16 h. Supernatant was removed by flicking the plate against a paper towel. Wells were washed once with PBS solution. To each well was added freshly prepared lysis buffer and plates were agitated on a plate shaker at 400 rpm for 30 min. The 96-well cell plates were centrifuged at 1500 rpm for 1 minute. From each well was transferred 10 μL of the lysates to a 384-well Optiplate™ (Perkin Elmer, catalog no. 6007290). To each well was added Acceptor Mix (5 μL) and the plates were sealed and wrapped in foil. Plates were agitated on a plate shaker for 2 minutes, then incubated at room temperature for 1 h. To each well was added Donor Mix (5 μL) and the plates were sealed and wrapped in foil. Plates were agitated on a plate shaker for 2 minutes, then incubated at room temperature for 1 h. AlphaLisa signal was read on an EnVision multimode plate reader (Perkin Elmer). Data were fit to dose-response curves using XLfit (IDBS, Surrey, UK) or Prism (GraphPad Software, La Jolla, Calif., US) to calculate IC50 values for each compound tested.

## COc1cccc(O[C@@H]2CC[C@H](N)C2)c1-c1cc(Nc2cnc(C#N)c(C)n2)n[nH]1 [Example 1-39, 5-((5-(2-(((1R,3S)-3-aminocyclopentyl)oxy)-6-methoxyphenyl)-1H-pyrazol-3-yl)amino)-3-methylpyrazine-2-carbonitrile]
[1]
  pIC50: 7.00 to 8.00
[2]
  pIC50: 6.00 to 6.30

## N#Cc1cnc(Nc2cc(-c3c(O[C@@H]4CC[C@@H](N)C4)ccc(F)c3F)[nH]n2)cn1 [Example 3-28, 5-((5-(6-(((1R,3R)-3-aminocyclopentyl)oxy)-2,3-difluorophenyl)-1H-pyrazol-3-yl)amino)pyrazine-2-carbonitrile]
[1]
  pIC50: ≥ 8.00
[2]
  pIC50: 6.30 to 7.00

## Cc1nc(Nc2cc(-c3ccccc3O[C@@H]3CC[C@H](N)C3)[nH]n2)cnc1C#N [Example 1-40, 5-((5-(2-(((1R,3S)-3-aminocyclopentyl)oxy)phenyl)-1H-pyrazol-3-yl)amino)-3-methylpyrazine-2-carbonitrile]
[1]
  pIC50: 6.30 to 7.00
[2]
  pIC50: < 6.00

## N#Cc1cnc(Nc2cc(-c3ccccc3O[C@@H]3CC[C@@H](N)C3)[nH]n2)cn1 (stereo in doubt) [Example 1-37, 5-((5-(2-(((1R,3R)-3-aminocyclopentyl)oxy)phenyl)-1H-pyrazol-3-yl)amino)pyrazine-2-carbonitrile]
[1]
  pIC50: 6.30 to 7.00
[2]
  pIC50: < 6.00

## COc1cccc(O[C@H]2CC[C@@H](N)C2)c1-c1cc(Nc2cnc(C#N)cn2)n[nH]1 [Example 2-2, 5-((5-(2-(((1S,3R)-3-aminocyclopentyl)oxy)-6-methoxyphenyl)-1H-pyrazol-3-yl)amino)pyrazine-2-carbonitrile]
[1]
  pIC50: 7.00 to 8.00
[2]
  pIC50: 6.00 to 6.30

## Cc1ccc(O[C@@H]2CC[C@@H](N)C2)c(-c2cc(Nc3cnc(C#N)cn3)n[nH]2)n1 [Example 1-60, 5-((5-(3-(((1R,3R)-3-aminocyclopentyl)oxy)-6-methylpyridin-2-yl)-1H-pyrazol-3-yl)amino)pyrazine-2-carbonitrile]
[1]
  pIC50: ≥ 8.00
[2]
  pIC50: ≥ 7.30

## COc1cccc(O[C@H]2CC[C@@H](N)CC2)c1-c1cc(Nc2cnc(C#N)cn2)n[nH]1 [Example 1-11, 5-((5-(2-(((1s,4s)-4-aminocyclohexyl)oxy)-6-methoxyphenyl)-1H-pyrazol-3-yl)amino)pyrazine-2-carbonitrile]
[1]
  pIC50: 7.00 to 8.00
[2]
  pIC50: 6.30 to 7.00

## CN[C@H]1C[C@H](Oc2cccc(F)c2-c2cc(Nc3cnc(C#N)cn3)n[nH]2)C1 [Example 2-5, 5-((5-(2-fluoro-6-((1r,3r)-3-(methylamino)cyclobutoxy)phenyl)-1H-pyrazol-3-yl)amino)pyrazine-2-carbonitrile]
[1]
  pIC50: 7.00 to 8.00
[2]
  pIC50: 6.30 to 7.00

## N#Cc1cnc(Nc2cc(-c3ccccc3O[C@H]3CC[C@@H](N)CC3)[nH]n2)cn1 [Example 1-50, 5-((5-(2-(((1s,4s)-4-aminocyclohexyl)oxy)phenyl)-1H-pyrazol-3-yl)amino)pyrazine-2-carbonitrile]
[1]
  pIC50: 6.30 to 7.00
[2]
  pIC50: < 6.00

## N#Cc1cnc(Nc2cc(-c3c(F)cc(Cl)cc3O[C@@H]3CC[C@H](N)C3)[nH]n2)cn1 [Example 3-24, 5-((5-(2-(((1R,3S)-3-aminocyclopentyl)oxy)-4-chloro-6-fluorophenyl)-1H-pyrazol-3-yl)amino)pyrazine-2-carbonitrile]
[1]
  pIC50: 7.00 to 8.00
[2]
  pIC50: 6.00 to 6.30

## COc1c(F)ccc(O[C@@H]2CC[C@H](N)C2)c1-c1cc(Nc2cnc(C#N)cn2)n[nH]1 [Example 1-26, 5-((5-(6-(((1R,3S)-3-aminocyclopentyl)oxy)-3-fluoro-2-methoxyphenyl)-1H-pyrazol-3-yl)amino)pyrazine-2-carbonitrile]
[1]
  pIC50: 7.00 to 8.00
[2]
  pIC50: 7.00 to 7.30

## N#Cc1cnc(Nc2cc(-c3ccccc3O[C@@H]3CC[C@@H](N)C3)[nH]n2)cn1 [Example 1-53, 5-((5-(2-(((1R,3R)-3-aminocyclopentyl)oxy)phenyl)-1H-pyrazol-3-yl)amino)pyrazine-2-carbonitrile]
[1]
  pIC50: ≥ 8.00
[2]
  pIC50: 7.00 to 7.30

## N#Cc1cnc(Nc2cc(-c3nc(C(F)(F)F)ccc3O[C@@H]3CC[C@H](N)C3)[nH]n2)cn1 [Example 3-49, 5-((5-(3-(((1R,3S)-3-aminocyclopentyl)oxy)-6-(trifluoromethyl)pyridin-2-yl)-1H-pyrazol-3-yl)amino)pyrazine-2-carbonitrile]
[1]
  pIC50: 7.00 to 8.00
[2]
  pIC50: 6.30 to 7.00

## COc1cc(F)c(-c2cc(Nc3cnc(C#N)cn3)n[nH]2)c(O[C@@H]2CC[C@H](N)C2)c1 [Example 1-41, 5-((5-(2-(((1R,3S)-3-aminocyclopentyl)oxy)-6-fluoro-4-methoxyphenyl)-1H-pyrazol-3-yl)amino)pyrazine-2-carbonitrile]
[1]
  pIC50: ≥ 8.00
[2]
  pIC50: 6.30 to 7.00

## N#Cc1cnc(Nc2cc(-c3c(F)cccc3O[C@H]3C[C@H](N)C3)[nH]n2)cn1 [Example 1-13, 5-((5-(2-((1r,3r)-3-aminocyclobutoxy)-6-fluorophenyl)-1H-pyrazol-3-yl)amino)pyrazine-2-carbonitrile]
[1]
  pIC50: 7.00 to 8.00
[2]
  pIC50: 6.30 to 7.00

## N#Cc1cnc(Nc2cc(-c3c(O[C@@H]4CC[C@H](N)C4)ccc(F)c3F)[nH]n2)cn1 [Example 3-18, 5-((5-(6-(((1R,3S)-3-aminocyclopentyl)oxy)-2,3-difluorophenyl)-1H-pyrazol-3-yl)amino)pyrazine-2-carbonitrile]
[1]
  pIC50: 7.00 to 8.00
[2]
  pIC50: 6.30 to 7.00

## COc1c(Cl)ccc(O[C@@H]2CC[C@H](N)C2)c1-c1cc(Nc2cnc(C#N)cn2)n[nH]1 [Example 4-2, 5-((5-(6-(((1R,3S)-3-aminocyclopentyl)oxy)-3-chloro-2-methoxyphenyl)-1H-pyrazol-3-yl)amino)pyrazine-2-carbonitrile]
[1]
  pIC50: 7.00 to 8.00
[2]
  pIC50: 6.00 to 6.30

## COc1cccc(O[C@H]2C[C@@H](N)C2)c1-c1cc(Nc2cnc(C#N)cn2)n[nH]1 [Example 1-4, 5-((5-(2-((1s,3s)-3-aminocyclobutoxy)-6-methoxyphenyl)-1H-pyrazol-3-yl)amino)pyrazine-2-carbonitrile]
[1]
  pIC50: 6.30 to 7.00
[2]
  pIC50: < 6.00

## CN[C@@H]1CC[C@@H](Oc2cc(Cl)cc(F)c2-c2cc(Nc3cnc(C#N)cn3)n[nH]2)C1 [Example 3-25, 5-((5-(4-chloro-2-fluoro-6-(((1R,3R)-3-(methylamino)cyclopentyl)oxy)phenyl)-1H-pyrazol-3-yl)amino)pyrazine-2-carbonitrile]
[1]
  pIC50: 7.00 to 8.00
[2]
  pIC50: 6.30 to 7.00

## COc1cc(F)cc(O[C@H]2CC[C@H](N)CC2)c1-c1cc(Nc2cnc(C#N)cn2)n[nH]1 [Example 2-4, 5-((5-(2-(((lr,4r)-4-aminocyclohexyl)oxy)-4-fluoro-6-methoxyphenyl)-1 H-pyrazol-3-yl)amino)pyrazine-2-carbonitrile]
[1]
  pIC50: ≥ 8.00
[2]
  pIC50: ≥ 7.30

## N#Cc1cnc(Nc2cc(-c3ccccc3O[C@H]3C[C@H](N)C3)[nH]n2)cn1 [Example 1-9, 5-((5-(2-((1r,3r)-3-aminocyclobutoxy)phenyl)-1H-pyrazol-3-yl)amino)pyrazine-2-carbonitrile]
[1]
  pIC50: 7.00 to 8.00
[2]
  pIC50: 6.30 to 7.00

## COc1c(F)ccc(O[C@H]2C[C@H](N)C2)c1-c1cc(Nc2cnc(C#N)cn2)n[nH]1 [Example 2-3, 5-((5-(6-((1r,3r)-3-aminocyclobutoxy)-3-fluoro-2-methoxyphenyl)-1H-pyrazol-3-yl)amino)pyrazine-2-carbonitrile]
[1]
  pIC50: 7.00 to 8.00
[2]
  pIC50: 6.30 to 7.00
